Experimental data reported in patent US7943786B2, “Process for preparing amorphous (4R-cis)-6-[2-[3-phenyl-4-(phenylcarbamoyl)-2-(4-fluorophenyl)-5-(1-methylethyl)-pyrrol-1-yl]-ethyl]-2,2-dimethyl-[1,3]-dioxane-4-yl-acetic acid” (priority 2003, dated 2011).

Key:
Format in all cases: physicochemical
[1] = Dissolution in tetrahydrofuran (clarity of solution)
[2] = Comparison of solubility of amorphous and crystalline form in aprotic organic solvents; conditions: e.g. diisopropyl ether, methyl cyclohexane, isopropanol
Solubility in water = assay: Solubility in water

| appearance of solution on dissolution in THF [1] | solubility of amorphous versus crystalline form [2] | Structure (SMILES) | solubility in water (Solubility in water) |
| --- | --- | --- | --- |
| perfectly clear solution | better soluble | CC(C)c1c(C(=O)Nc2ccccc2)c(-c2ccccc2)c(-c2ccc(F)cc2)n1CC[C@@H]1C[C@H](CC(=O)OC(C)(C)C)OC(C)(C)O1 [amorphous compound of the formula I, (4R-cis)-6-[2-[3-phenyl-4-(phenylcarbamoyl)-2-(4-fluorophenyl)-5-(1-methylethyl)-pyrrol-1-yl]-ethyl]-2,2-dimethyl-[1,3]-dioxane-4-yl-acetic acid-tertiary butyl ester] |  |
|  |  | CC(C)c1c(C(=O)Nc2ccccc2)c(-c2ccccc2)c(-c2ccc(F)cc2)n1CC[C@@H]1C[C@H](CC(=O)OC(C)(C)C)OC(C)(C)O1 [compound of the formula I, (4R-cis)-6-[2-[3-phenyl-4-(phenylcarbamoyl)-2-(4-fluorophenyl)-5-(1-methylethyl)-pyrrol-1-yl]-ethyl]-2,2-dimethyl-[1,3]-dioxane-4-yl-acetic acid-tertiary butyl ester] | very poor solubility in water or is practically insoluble in water |
| some dimness appeared |  | CC(C)c1c(C(=O)Nc2ccccc2)c(-c2ccccc2)c(-c2ccc(F)cc2)n1CC[C@@H]1C[C@H](CC(=O)OC(C)(C)C)OC(C)(C)O1 [crystalline compound of the formula I, (4R-cis)-6-[2-[3-phenyl-4-(phenylcarbamoyl)-2-(4-fluorophenyl)-5-(1-methylethyl)-pyrrol-1-yl]-ethyl]-2,2-dimethyl-[1,3]-dioxane-4-yl-acetic acid-tertiary butyl ester] |  |
